In brackets after ≈: the same amount, converted by molar mass. Several values for one entry are separate records, joined by “and”; a condition that tells them apart may be missing. Equal entries are not always repeated.
Tests used:
PC-3 prostata cancer = experiment: Cytotoxicity, PC-3; type: cell-based
Description: (§1) The compounds 9a, 9b and 9c, which are exemplary compounds of formula (III) according to the present invention, as well as the reference compound 25f were tested in a similar manner.

[1] = tested on: PtK-2 opossum kidney cells; experiment: Cytotoxicity, PtK-2; type: cell-based; conditions: PtK2; PtK-2 opossum kidney cells (non-malign)
Description: as §1

L929 fibroblasts = experiment: Cytotoxicity, L929; type: cell-based; conditions: Mus musculus, read-out: IC50 L-929
Description: as §1

KB-3-1 cervix carcinoma = experiment: Cytotoxicity, KB-3-1; type: cell-based; conditions: Homo sapiens
Description: as §1

NHDF fibroblasts = experiment: Cytotoxicity, NHDF; type: cell-based; conditions: Homo sapiens; NHDF fibroblasts (non-malign)
Description: as §1

HUVEC cells [2] = experiment: Minimal inhibitory concentration in HUVEC; type: cell-based
Description: as §1

[3] = tested on: HT-29 colon carcinoma cells; experiment: MTT cell growth inhibition, HT-29; type: cell-based, human; conditions: multi-drug resistant HT-29 colon cancer cells
Description: (§2) The effects of the compounds 5b, 6b, 8a, and 8e according to the present invention and of the reference compound 25f (Wang et al., J. Med. Chem. 2002, 45, 1697-1711) on cells of the following human tumor cell lines were evaluated: 518A2 melanoma, HL-60 leukemia, HT-29 colon carcinoma, KB-V1/Vbl cervical carcinoma, and MCF-7/Topo breast carcinoma.
(§3) The HL-60 cells were obtained from the German Collection of Biological Material (DSMZ), Braunschweig, Germany; the human 518A2 melanoma cells as well as the testicular germ cell tumor cell lines H12.1 and 1411HP were cultured in the department of oncology and hematology, Medical Faculty of the Martin-Luther University, Halle, Germany; the KBV1/Vbl and the MCF-7/Topo cells were obtained from the Institute of Pharmacy of the University Regensburg, Germany; and the colon HT-29 cells from the University Hospital Erlangen, Germany. The HL-60 and the HT-29 cells were grown in RPMI-1640 medium supplemented with 10% fetal calf serum (FCS), 100 IU/mL penicillin G, 100 μg/mL streptomycin sulfate, 0.25 μg/mL amphotericin B and 250 μg/mL gentamycine (all from Gibco, Egenstein, Germany). The 518A2 and the KB-V1/Vbl cells were cultured in Dulbecco's Modified Eagle Medium (D-MEM, Gibco) containing 10% FCS, 100 IU/mL penicillin G, 100 μg/mL streptomycin sulfate, 0.25 μg/mL amphotericin B and 250 μg/mL gentamycine. The MCF-7/Topo cells were grown in E-MEM medium (Sigma) supplemented with 2.2 g/L NaHCO3, 110 mg/L sodium pyruvate and 5% FCS. The cells were maintained in a moisture-saturated atmosphere (5% CO2) at 37° C. in 75-mL culture flasks (Nunc, Wiesbaden, Germany). They were serially passaged following trypsinisation by 0.05% trypsin/0.02% EDTA (PAA laboratories, Clbe, Germany). Mycoplasma contamination was routinely monitored, and only mycoplasma-free cultures were used.
(§4) MTT [3-(4,5-dimethylthiazol-2-yl)-2,5-diphenyltetrazolium bromide](ABCR) was used to identify viable cells which reduce it to a violet formazan (Mosmann, J. Immunol. Methods 1983, 65, 55-63). HL-60 leukemia cells (5×10^5/mL), and cells (5×10^4/mL) of 518A2 melanoma, HT-29 colon, KB-V1/Vbl cervix and MCF-7/Topo breast carcinoma were seeded out in 96-well tissue culture plates and cultured for 24 h. Incubation (5% CO2, 95% humidity, 37° C.) of the cells following treatment with the test compounds was continued for 24, 48 or 72 h. Blank and solvent controls were treated identically. MTT in phosphate buffered saline (5 mg/mL) was added to a final concentration of 0.05% (HL-60, 518A2) or 0.1% (HT-29, KB-V1/Vbl, MCF-7/Topo). After 2 h the formazan precipitate was dissolved in 10% sodium dodecylsulfate in DMSO containing 0.6% acetic acid in the case of the HL-60 cells. For the adherent 518A2, KB-V1/Vbl, MCF-7/Topo and HT-29 cells the microplates were swiftly turned to discard the medium before adding the solvent mixture. The microplates were gently shaken in the dark for 30 min and absorbance at 570 nm and 630 nm (background) was measured with an ELISA plate reader. All experiments were carried out in quadruplicate; the percentage of viable cells was calculated as the mean±SD with controls set to 100%.

[4] = tested on: vascular system of a fertilized chicken embryo; experiment: CAM assay; type: in vivo; conditions: 10 nmol applied on the embryonal vessels; up to three days
Description: Compounds of the present invention were tested for anti-angiogenic and vasculature disrupting properties using the CAM assay. In this test the vascular system of a fertilized chicken embryo is used as a model (Wilting et al., Anat. Embryol. 1991, 183, 259-271).
Fertilized chicken eggs received from a nearby farm directly after laying have been incubated at a temperature of 36-38° C. and a relative humidity of 60%. During the growth the eggs have been held in an inclined position and turned from time to time in order to avoid an adherence to the shell. After four days each embryo was transferred into a cavity created by fixing a thin plastic foil on top of a cup and covered. This was done by opening the shell at the flat end where the air sac resides and letting the content slip out. There the growth continued for another 2-4 days until the first blood vessels became visible. Then 10 nmol of the substance to be tested (in 10 μL PBS with 1% DMF) have been applied directly on the embryonal vessels. As a reference PBS was used. Finally incubation continued for up to another three days (Dugan et al., Anat. Rec. 1991, 229, 125-128; Fisher, Tested studies for laboratory teaching 1993, 5, 105-115).

H12.1 xenograft = H12.1 xenograft bearing mice; cited from earlier work
[5] = tested on: 1411HP germ cell tumor xenografts; conditions: 1411HP xenografts; cited from earlier work
[6] = Bedford et al., Bioorg. Med. Chem. Lett. 1996; cited from earlier work
HL-60 cells [7] = experiment: ROS generation, NBT assay, HL-60; type: cell-based, human; conditions: 50 μM, relative to untreated controls (1%), mean ± SD
Description: (§5) The generation of reactive oxygen species (ROS) in tumor cells is a sign of cellular stress resulting in severe damage of cellular components such as DNA, lipids or proteins.
(§6) For the NBT assay, HL-60 cells (0.5·10^6/mL) were plated in 96-well tissue culture plates, and test compounds were added after 24 h incubation at 37° C. to achieve a final concentration of 50 μM. […] After removal of the cell medium by centrifugation, the cells in each well were resuspended in 100 μL 0.1% NBT, and the plates were placed in the incubator for 1 h. The reduced NBT was solubilized with 100 μl 2 M KOH and 130 μl DMSO for 30 min. The absorbance was measured for each well at 630 and 405 nm (background) using an ELISA plate reader. The adherent 518A2 cells (0.5·10^4/mL) were seeded out in 96-well tissue culture plates after trypsinization and incubation for 24 h at 37° C. to allow attachment, then treated similarly, only that the medium was removed prior to incubation with NBT for 4 h. All experiments were carried out in quadruplicate.

518A2 cells [8] = experiment: Mitochondrial membrane assay (JC-1), 518A2; type: cell-based, human; conditions: 5 μM, red/green fluorescence ratio relative to untreated controls (100%), mean ± SD
Description: (§7) Values represent means of four independent experiments±standard deviation.
(§8) Changes in mitochondrial membrane potential were determined by the Mitochondrial Membrane Detection Kit (Stratagene, La Jolla, Calif., USA) according to the manufacturer's procedure. 72 h following treatment with 5 μM of the test compounds, cell samples were centrifuged at 400 g for 5 min. The pellets were resuspended in 500 μL diluted JC-1 solution, incubated at 37° C. for 15 min (HL-60) and then centrifuged again for 5 min at 400 g. After washing, the pellets were resuspended in 100 μL PBS and transferred into the wells of a black 96-well plate. The red (λex=585 nm, λem=590 nm) and green (λex=510 nm, λem=527 nm) fluorescence intensities were measured and their ratio was calculated.

HUVEC cells [9] = experiment: Tube formation assay on matrigel; type: cell-based
Description: 35 μL of media:matrigel (1:1) were added into wells of a 96-well plate and incubated at 37° C. for 30 minutes. A trypsinized HUVEC cell suspension was set to 800.000 cells/mL. In another 96-well plate 25 μL of the compound stock were serially diluted with 25 μL of media. 25 μL of compound dilutions and 25 μL of cell suspension were added to the matrigel coated 96-well plate and the cells were incubated over night. As a negative control, methanol was used as in place of the compound dilutions.

[10] = tested on: KB-V1/Vbl cervical carcinoma cells; experiment: MTT cell growth inhibition, KB-V1/Vbl; type: cell-based, human; conditions: KB-V1/Vbl (Pgp+)
Description: The MCF-7/Topo cells were grown in E-MEM medium (Sigma) supplemented with 2.2 g/L NaHCO3, 110 mg/L sodium pyruvate and 5% FCS. The cells were maintained in a moisture-saturated atmosphere (5% CO2) at 37° C. in 75-mL culture flasks (Nunc, Wiesbaden, Germany). They were serially passaged following trypsinisation by 0.05% trypsin/0.02% EDTA (PAA laboratories, Clbe, Germany). Mycoplasma contamination was routinely monitored, and only mycoplasma-free cultures were used.
as §4, with “HL-60” for “MTT [3-(4,5-dimethylthiazol-2-yl)-2,5-diphenyltetrazolium bromide](ABCR) was used to identify viable cells which reduce it to a violet formazan (Mosmann, J. Immunol. Methods 1983, 65, 55-63). HL-60”, “Incubation (5% CO2, 95% humidity, 37° C.) of the cells following treatment with the test compounds was continued for 24, 48 or 72 h.” left out

HL-60 cells [11] = experiment: Mitochondrial membrane assay (JC-1), HL-60; type: cell-based, human; conditions: 5 μM, red/green fluorescence ratio relative to untreated controls (100%), mean ± SD
Description: as §7, §8

518A2 cells [12] = experiment: ROS generation, NBT assay, 518A2; type: cell-based, human; conditions: 50 μM, relative to untreated controls (1%), mean ± SD
Description: as §5, §6

[13] = tested on: MCF-7/Topo breast carcinoma cells; experiment: MTT cell growth inhibition, MCF-7/Topo; type: cell-based, human; conditions: MCF-7/Topo (BCRP+)
Description: as §2, §3
as §4, with “MTT in phosphate buffered saline (5 mg/mL) was added to a final concentration of 0.05% (HL-60, 518A2) or 0.1% (HT-29, KB-V1/Vbl, MCF-7/Topo). After 2 h the formazan precipitate was dissolved in 10% sodium dodecylsulfate in DMSO containing 0.6% acetic acid in the case of the HL-60 cells. For the adherent 518A2, KB-V1/Vbl, MCF-7/Topo and HT-29 cells the microplates were swiftly turned to discard the medium before adding the solvent mixture.” left out

HL-60 cells [14] = experiment: TUNEL assay; type: cell-based, human; conditions: 10 μM; 16 h incubation

| SMILES | IC50 (PC-3 prostata cancer) | IC50 [1] | IC50 (L929 fibroblasts) | IC50 (KB-3-1 cervix carcinoma) | IC50 (NHDF fibroblasts) | minimal inhibitory concentration (MIC) HUVEC (HUVEC cells [2]) | other results |
| --- | --- | --- | --- | --- | --- | --- | --- |
| COc1ccc(-c2ncn(C)c2-c2cc(Br)c(OC)c(Br)c2)cc1F [9b, 1-Methyl-4-(3-fluoro-4-methoxyphenyl)-5-(3,5-dibromo-4-methoxyphenyl)-imidazole] | 9.9 nM | 1180 nM | 21700 nM | 14 nM | 395 nM | 0.257 µM (≈ 0.121 µg/mL) | – |
| COc1ccc(-c2ncn(C)c2-c2cc(I)c(OC)c(I)c2)cc1F [9c, 1-Methyl-4-(3-fluoro-4-methoxyphenyl)-5-(3,5-diiodo-4-methoxyphenyl)-imidazole] | 3.3 nM | 333 nM | 18 nM | 2.5 nM | 3330 nM | 0.083 µM (≈ 0.0468 µg/mL) | – |
| COc1ccc(/C=C\c2cc(OC)c(OC)c(OC)c2)cc1O [CA-4, combretastatin A-4, reference compound] | – | – | – | – | – | – | cytotoxicity (comparison) [3]: lower cytotoxicities than compounds 5b and 6b; effect on embryonal blood vessels [4]: dramatic vessel shrinkage within 24 h after treatment and to a complete degradation of the vascular system within three days |
| N.N.[Cl][Pt][Cl] [cisplatin] | – | – | – | – | – | – | tumor response (H12.1 xenograft): complete regressions; tumor response [5]: only a transient growth inhibition followed by renewed tumor progress |
| COc1ccc(/C=C\c2cc(OC)c(OC)c(OC)c2)cc1OP(=O)(O)O [combretastatin A-4-phosphate] | – | – | – | – | – | – | solubility in water [6]: about 5 mg/mL |
| COc1ccc(-c2ocnc2-c2cc(N)c(OC)c(OC)c2)cc1N [compound 8a, 4-(3′-Amino-4′,5′-dimethoxyphenyl)-5-(3″-amino-4″-methoxyphenyl)-oxazole] | – | – | – | – | – | – | NBT Reduction [%] in HL-60 cells after 24 h (HL-60 cells [7]): 3.5 ± 0.4%; Intact mitochondria [%] in 518A2 cells after 72 h (518A2 cells [8]): 85 ± 7%; inhibition of tube formation (HUVEC cells [9]; 7.72 ng/mL): pronounced inhibition of tube formation; efficacy (comparison) [10]: greater efficacy than 25f and 5b/6b; Intact mitochondria [%] in HL-60 cells after 72 h (HL-60 cells [11]): 62 ± 9%; NBT Reduction [%] in 518A2 cells after 24 h (518A2 cells [12]): 1.5 ± 0.1%; cytotoxicity / efficacy (comparison) [13]: greater efficacy than 25f and 5b/6b; apoptotic (TUNEL-positive) cells (HL-60 cells [14]): about 60% |
| COc1ccc(-c2c(-c3cc(OC)c(OC)c(OC)c3)ncn2C)cc1N [compound 25f, reference compound] | 90 nM | 453 nM | 215 nM | 68 nM | 136 nM | 0.294 µM (≈ 0.109 µg/mL) | Intact mitochondria [%] in 518A2 cells after 72 h (518A2 cells [8]): 87 ± 7%; concentration that inhibits tube formation (HUVEC cells [9]): 130 ng/mL; Intact mitochondria [%] in HL-60 cells after 72 h (HL-60 cells [11]): 74% and 74 ± 13%; NBT Reduction [%] in 518A2 cells after 24 h (518A2 cells [12]): 2.2 ± 0.4% |

— patent US8980933B2, “Combretastatin analogs for use in the treatment of cancer” (Universitat Bayreuth, priority 2010, dated 2015)
